Assay results published in patent publication US8492328B2, “Biomarkers and methods for determining sensitivity to insulin growth factor-1 receptor modulators” (Bristol-Myers Squibb Company, priority 2007, dated 2013).
Entries after “also recorded” stand apart in the source; their conditions may differ.

How the values were obtained:
[1] = system: 5838; test: In vitro cellular proliferation assay ([3H]-thymidine incorporation); type: cell-based, human
Method: (§1) All pediatric sarcoma and neuroblastoma cell lines were obtained from Dr. Lee Helman at NIH. All cell lines were grown in RPMI medium supplemented with Glutamax (Gibco/Invitrogen #61870-036), 10% inactivated fetal bovine serum (Gibco/Invitrogen #16140-071), 10 mM Hepes, penicillin and streptomycin.
(§2) Cells were plated at an optimized density for each cell line per well in 96-well microtiter Falcon plates, incubated overnight, and then exposed to a serial dilution of drug. After 72 hours incubation with drug at 37° C., cells were pulsed with 4 μCi/ml [6-3H] thymidine (Amersham Pharmacia Biotech, UK) for 3 hours, trypsinized, harvested onto UniFilter-96, GF/B plates (PerkinElmer, Boston, Mass.) and scintillation was measured on a TopCount NXT (Packard, Conn.). Results were expressed as an IC50, which is the drug concentration required to inhibit cell proliferation by 50% to that of untreated control cells. The mean IC50 and standard deviation (SD) from multiple tests for each cell line were calculated.

[2] = system: CTR; test: as above; type: cell-based, human
Method: as §1, §2

[3] = system: H2052; test: as above; type: cell-based, human
Method: as §1, §2

[4] = system: H211; test: as above; type: cell-based, human
Method: as §1, §2

[5] = system: H2595; test: as above; type: cell-based, human
Method: as §1, §2

[6] = system: H513; test: as above; type: cell-based, human
Method: as §1, §2

[7] = system: HT1080/S; test: as above; type: cell-based, human
Method: as §1, §2

[8] = system: HTB-92; test: as above; type: cell-based, human
Method: as §1, §2

[9] = system: IMR-32; test: as above; type: cell-based, human
Method: as §1, §2

[10] = system: JD; test: as above; type: cell-based, human
Method: as §1, §2

[11] = system: KAG; test: as above; type: cell-based, human
Method: as §1, §2

[12] = system: LAN-1; test: as above; type: cell-based, human
Method: as §1, §2

[13] = system: LG; test: as above; type: cell-based, human
Method: as §1, §2

[14] = system: ME; test: as above; type: cell-based, human
Method: as §1, §2

[15] = system: RDES; test: as above; type: cell-based, human
Method: as §1, §2

[16] = system: Rh1; test: as above; type: cell-based, human
Method: as §1, §2

[17] = system: Rh36; test: as above; type: cell-based, human
Method: as §1, §2

[18] = system: Rh41; test: as above; type: cell-based, human
Method: as §1, §2

[19] = system: Rh4; test: as above; type: cell-based, human
Method: as §1, §2

[20] = system: SA-4; test: as above; type: cell-based, human
Method: as §1, §2

[21] = system: SHSY5Y; test: as above; type: cell-based, human
Method: as §1, §2

[22] = system: SK-LMS-1; test: as above; type: cell-based, human
Method: as §1, §2

[23] = system: SK-NAS; test: as above; type: cell-based, human
Method: as §1, §2

[24] = system: SK-NSH; test: as above; type: cell-based, human
Method: as §1, §2

[25] = system: SW-684; test: as above; type: cell-based, human
Method: as §1, §2

[26] = system: TC32; test: as above; type: cell-based, human
Method: as §1, §2

[27] = system: TC71; test: as above; type: cell-based, human
Method: as §1, §2

[28] = system: To184.T; test: as above; type: cell-based, human
Method: as §1, §2

[29] = system: VW; test: as above; type: cell-based, human
Method: as §1, §2

[30] = system: IGF1R-sal, Colo205, RD1, HT-29, WiDr, GEO, MDA-PCa-2b, MCF-7, H3396, N-87, BT474, and SKBR3 cell lines; test: Drug combination study (Dilution of Ratios) in cellular proliferation assays; details: for Combination Result: in vitro combination with compound 1, multiple cell lines, analyzed by Isobolograms

With `C[C@@]1(C(=O)Nc2ccc(F)nc2)CCCN1c1nc(Nc2cc(C3CC3)[nH]n2)c2cccn2n1` [Compound 2, (2S)-1-(4-((5-cyclopropyl-1H-pyrazol-3-yl)amino)pyrrolo[2,1-f][1,2,4]triazin-2-yl)-N-(6-fluoro-3-pyridinyl)-2-methyl-2-pyrrolidinecarboxamide] as the compound, how does the “Sensitivity Classification” value ([1]; 5838 (Ewing)) read?
Its value is “S (“S” means sensitive)”.

What about the IC50 ([1]; Homo sapiens, 72 h) of the same compound?
Its IC50 is 34 nM.

What about the “sensitivity/resistance classification in words” value ([2]; CTR) of the same compound?
Its value is “sensitive”.

What about the “Sensitivity Classification” value ([2]; CTR (Rhabdomyosarcoma)) of the same compound?
Its value is “S (“S” means sensitive)”.

What about the IC50 ([2]; Homo sapiens, 72 h) of the same compound?
Its IC50 is 253 nM.

What about the “Sensitivity Classification” value ([3]; H2052 (Melignant Pleural Mesothelioma)) of the same compound?
Its value is “R (“R” means resistant to the corresponding compounds.)”.

What about the IC50 ([3]; Homo sapiens, NCI-H2052, 72 h) of the same compound?
Its IC50 is 1050 nM.

What about the “Sensitivity Classification” value ([4]; H211 (Melignant Pleural Mesothelioma)) of the same compound?
Its value is “R (“R” means resistant to the corresponding compounds.)”.

And the IC50 ([4]; Homo sapiens, NCI-H211, 72 h)?
The IC50 was 733 nM.

And the “Sensitivity Classification” value ([5]; H2595 (Melignant Pleural Mesothelioma))?
Its value is “R (“R” means resistant to the corresponding compounds.)”.

And the IC50 ([5]; Homo sapiens, NCI-H2595, 72 h)?
Its IC50 is 4480 nM.

And the “Sensitivity Classification” value ([6]; H513 (Melignant Pleural Mesothelioma))?
Its value is “R (“R” means resistant to the corresponding compounds.)”.

What about the IC50 ([6]; Homo sapiens, H513, 72 h) of the same compound?
The IC50 was 4450 nM.

And the “Sensitivity Classification” value ([7]; HT1080/S (Fibrosarcoma))?
Its value is “R (“R” means resistant to the corresponding compounds.)”.

And the IC50 ([7]; Homo sapiens, HT-1080, 72 h)?
Its IC50 is 531 nM.

What about the “Sensitivity Classification” value ([8]; HTB-92 (Liposarcoma)) of the same compound?
Its value is “R (“R” means resistant to the corresponding compounds.)”.

What about the IC50 ([8]; Homo sapiens, 72 h) of the same compound?
Its IC50 is 1020 nM.

What about the IC50 ([9]; Homo sapiens, IMR-32, 72 h) of the same compound?
The IC50 was 261 nM.

And the “Sensitivity Classification” value ([9]; IMR-32 (Neuroblastoma))?
Its value is “S (“S” means sensitive)”.

What about the IC50 ([10]; Homo sapiens, 72 h) of the same compound?
The IC50 was 391 nM.

And the “sensitivity/resistance classification in words” value ([10]; JD)?
Its value is “resistant”.

What about the “Sensitivity Classification” value ([10]; JD (Ewing)) of the same compound?
The value was “R (“R” means resistant to the corresponding compounds.)”.

What about the IC50 ([11]; Homo sapiens, 72 h) of the same compound?
Its IC50 is 1660 nM.

And the “Sensitivity Classification” value ([11]; KAG (Ewing))?
Its value is “R (“R” means resistant to the corresponding compounds.)”.

And the IC50 ([12]; Homo sapiens, LAN1, 72 h)?
Its IC50 is 40 nM.

What about the “Sensitivity Classification” value ([12]; LAN-1 (Neuroblastoma)) of the same compound?
Its value is “S (“S” means sensitive)”.

And the IC50 ([13]; Homo sapiens, 72 h)?
Its IC50 is 37.5 nM.

What about the “Sensitivity Classification” value ([13]; LG (Ewing)) of the same compound?
Its value is “S (“S” means sensitive)”.

And the IC50 ([14]; Homo sapiens, 72 h)?
Its IC50 is 15 nM.

And the “Sensitivity Classification” value ([14]; ME (Rhabdomyosarcoma))?
The value was “S (“S” means sensitive)”.

And the IC50 ([15]; Homo sapiens, RD-ES, 72 h)?
Its IC50 is 11.7 nM.

What about the “Sensitivity Classification” value ([15]; RDES (Ewing)) of the same compound?
Its value is “S (“S” means sensitive)”.

What about the IC50 ([16]; Homo sapiens, RH-1, 72 h) of the same compound?
Its IC50 is 26.7 nM.

And the “Sensitivity Classification” value ([16]; Rh1 (Rhabdomyosarcoma))?
Its value is “S (“S” means sensitive)”.

And the IC50 ([17]; Homo sapiens, 72 h)?
Its IC50 is 1430 nM.

What about the “Sensitivity Classification” value ([17]; Rh36 (Rhabdomyosarcoma)) of the same compound?
The value was “R (“R” means resistant to the corresponding compounds.)”.

What about the IC50 ([18]; Homo sapiens, Rh41, 72 h) of the same compound?
Its IC50 is 4.7 nM.

What about the “Sensitivity Classification” value ([18]; Rh41 (Rhabdomyosarcoma)) of the same compound?
The value was “S (“S” means sensitive)”.

And the IC50 ([19]; Homo sapiens, Rh4, 72 h)?
The IC50 was 4 nM.

What about the “Sensitivity Classification” value ([19]; Rh4 (Rhabdomyosarcoma)) of the same compound?
The value was “S (“S” means sensitive)”.

And the IC50 ([20]; Homo sapiens, 72 h)?
The IC50 was 1300 nM.

And the “Sensitivity Classification” value ([20]; SA-4 (Liposarcoma))?
Its value is “R (“R” means resistant to the corresponding compounds.)”.

What about the IC50 ([21]; Homo sapiens, SH-SY5Y, 72 h) of the same compound?
The IC50 was 106 nM.

What about the “Sensitivity Classification” value ([21]; SHSY5Y (Neuroblastoma)) of the same compound?
Its value is “S (“S” means sensitive)”.

And the IC50 ([22]; Homo sapiens, SK-LMS-1, 72 h)?
The IC50 was 687 nM.

What about the “Sensitivity Classification” value ([22]; SK-LMS-1 (Leiomyosarcoma)) of the same compound?
Its value is “R (“R” means resistant to the corresponding compounds.)”.

What about the IC50 ([23]; Homo sapiens, SK-N-AS, 72 h) of the same compound?
Its IC50 is 497 nM.

And the “sensitivity/resistance classification in words” value ([23]; SK-NAS)?
Its value is “resistant”.

What about the “Sensitivity Classification” value ([23]; SK-NAS (Neuroblastoma)) of the same compound?
Its value is “R (“R” means resistant to the corresponding compounds.)”.

What about the IC50 ([24]; Homo sapiens, SK-N-SH, 72 h) of the same compound?
Its IC50 is 139 nM.

And the “Sensitivity Classification” value ([24]; SK-NSH (Neuroblastoma))?
The value was “S (“S” means sensitive)”.

What about the IC50 ([25]; Homo sapiens, SW684, 72 h) of the same compound?
The IC50 was 5000 nM.

What about the “Sensitivity Classification” value ([25]; SW-684 (Fibrosarcoma)) of the same compound?
The value was “R (“R” means resistant to the corresponding compounds.)”.

And the IC50 ([26]; Homo sapiens, TC-32, 72 h)?
The IC50 was 8.4 nM.

What about the “Sensitivity Classification” value ([26]; TC32 (Ewing)) of the same compound?
The value was “S (“S” means sensitive)”.

And the IC50 ([27]; Homo sapiens, TC-71, 72 h)?
The IC50 was 14.3 nM.

What about the “Sensitivity Classification” value ([27]; TC71 (Ewing)) of the same compound?
Its value is “S (“S” means sensitive)”.

What about the IC50 ([28]; Homo sapiens, 72 h) of the same compound?
Its IC50 is 470 nM.

What about the “Sensitivity Classification” value ([28]; To184.T (Liposarcoma)) of the same compound?
Its value is “R (“R” means resistant to the corresponding compounds.)”.

And the IC50 ([29]; Homo sapiens, 72 h)?
The IC50 was 19 nM.

And the “Sensitivity Classification” value ([29]; VW (Ewing))?
Its value is “S (“S” means sensitive)”.

What about the “Combination result of compound 2” value ([30]; compound 2 with HER1/HER2 inhibitors or dasatinib, data not shown) of the same compound?
Its value is “synergy effects”.

How did the “Combination Result” value [30] turn out when `COc1cc([C@@H]2c3cc4c(cc3[C@@H](O[C@@H]3O[C@@H]5CO[C@@H](C)O[C@H]5[C@H](O)[C@H]3O)[C@H]3COC(=O)[C@H]23)OCO4)cc(OC)c1O` [VP-16] was run?
Its value is “Additive”.

With `N.N.[Cl][Pt][Cl]` [cisplatin] as the compound, how does the “Combination Result” value [30] read?
The value was “Additive”.

Which “Combination Result” value [30] does the source give for `C#Cc1cccc(Nc2ncnc3cc(OCCOC)c(OCCOC)cc23)c1` [erlotinib] here?
Its value is “synergistic effects; also recorded: Synergy”.

With `COc1cc2ncnc(Nc3ccc(F)c(Cl)c3)c2cc1OCCCN1CCOCC1` [gefitnib] as the compound, how does the “Combination Result” value [30] read?
The value was “synergistic effects; also recorded: Synergy”.

How did the “Combination Result” value [30] turn out when `CS(=O)(=O)CCNCc1ccc(-c2ccc3ncnc(Nc4ccc(OCc5cccc(F)c5)c(Cl)c4)c3c2)o1` [lapatinib] was run?
The value was “synergistic effects; also recorded: Synergy”.

Which “Combination Result” value [30] does the source give for `CC(=O)O[C@H]1C(=O)[C@@]2(C)[C@H]([C@H](OC(=O)c3ccccc3)[C@]3(O)C[C@H](OC(=O)[C@H](O)[C@@H](NC(=O)c4ccccc4)c4ccccc4)C(C)=C1C3(C)C)[C@]1(OC(C)=O)CO[C@@H]1C[C@@H]2O` [paclitaxel] here?
The value was “Additive”.

`CC[C@]1(O)C[C@H]2CN(CCc3c([nH]c4ccccc34)[C@@](C(=O)OC)(c3cc4c(cc3OC)N(C=O)[C@H]3[C@@](O)(C(=O)OC)[C@H](OC(C)=O)[C@]5(CC)C=CCN6CC[C@]43[C@@H]65)C2)C1` [vincristine] was tested. Which “Combination Result” value [30] did it give?
The value was “Additive”.
